Results from US20210186930A1, “Methods of Treating Renal Disease Associated With Chronic Kidney Disease Such as Alport Syndrome” (UNIVERSITY OF MIAMI, priority 2018, published 2021).
“Also recorded” adds a separate entry of the source.

Columns and labels:
Col4a3−/− mice [1] = experiment: Renal cortex lipid content in Col4a3-/- mice (Example 4, FIG. 7); format: in vivo, mouse; settings: for triglyceride (TG) content in kidney cortexes: treated vs untreated Col4a3−/− mice, ezetimibe 5 mg/kg, ramipril 10 mg/kg, 4 weeks
Protocol: Determination of cholesterol content in kidney cortex: Tissue from kidney cortexes was homogenized in hypotonic buffer (10 mM HEPES pH7.0, 15 mM KCl, 1 mM MgCl2, 10 mM phosphatase inhibitors). Lipids from 100 μl of the homogenate were extracted with 1 ml of hexane:isopropanol (3:2, v/v), dried and reconstituted in 100 μl of isopropanol-NP40 (9:1, v/v). Tissue fractions not soluble in the organic solvent, were further dried, reconstituted in 8 M urea, and assayed for protein concentration using Pierce BCA protein assay kit (ThermoFisher Scientific, MA, USA). Total cholesterol from lipid extracts was determined by the enzymatic method as previously described (Robinet, P., Wang, Z., Hazen, S. L. & Smith, J. D. A simple and sensitive enzymatic method for cholesterol quantification in macrophages and foam cells. Journal of lipid research 51, 3364-3369, 2010). Briefly, endogenous peroxides present were eliminated by incubating samples and standards with catalase (Sigma-Aldrich, MO, USA), 45 U/ml final concentration, for 15 min at 37° C. […] The plates were incubated at 37° C. for 30 min and fluorescence was read at 530 nm (Ex) and 580 nm (Em) in a plate reader (SpectraMax M5, Molecular Devices, CA, USA). Cholesteryl esters (CE) quantification was based on the method described from Toshimi M, et al. Briefly, 25 μl of samples was mixed with 150 μl of free cholesterol decomposition reagent (45 U/ml catalase, 1 U/ml cholesterol oxidase) and incubated 2-4 h at 37° C., and then the final volume was brought up to 250 μl prior to determining free and total cholesterol remaining. Total cholesterol remaining was determined by mixing 50 μl of end product reaction with 50 μl of reagent A, as described above. Free cholesterol remaining was determined similarly, but without including cholesterol esterase in the reagent. CE was calculated by the formula CE=(TC−FC)×DF, where TC is the total cholesterol remaining, FC the free cholesterol remaining and DF the dilution factor, in this case, 10. Lipid content: Oil Red 0 staining was performed on frozen tissue sections and triglyceride content was determined on snap frozen kidney tissue as described above. The following experiment was performed to investigate which treatment, ezetimibe (EZ), ramipril (Ramp) or the combination of both drugs (EZ+Ramp), would best preserve renal function in Col4a3 knockout mice, all drugs were administered to 4-week-old Col4a3−/− mice for 4 weeks as follows: ezetimibe (Ez) was orally administered at a concentration of 5 mg/kg BW, ramipril was added to the drinking water at a concentration that would lead to a daily ramipril uptake of 10 mg/kg BW. All mice were sacrificed at 8 weeks of age. The following four groups of mice were analyzed: Col4a3^+/+, Col4a3^−/−+Ez, Col4a3^−/−+Ramp and Col4a3^−/−+Ez+Ramp.

[2] = cited from earlier work
Col4a3−/− mice [3] = experiment: Renal function in Col4a3-/- mice treated with ezetimibe, ramipril or both (Example 1, FIG. 5); format: in vivo, mouse; settings: vs untreated Col4a3−/−
Text: Albumin/creatinine ratio: All albuminuria values are expressed as μg albumin/mg creatinine. Albumin/creatinine determined by ELISA (Bethyl Laboratories) for albumin detection and a biochemical assay based on the Jaffe method for creatinine detection (Stanbio) as previously described. Serology: Immediately prior to sacrifice, a blood sample was collected for the determination of BUN and lipid panel analysis in the comparative laboratory core facility of the University of Miami. Serum creatinine was determined by tandem mass spectrometry (UAB-UCSD O'Brien Core Center, University of Alabama). The following experiment was performed to investigate which treatment, ezetimibe (EZ), ramipril (Ramp) or the combination of both drugs (EZ+Ramp), would best preserve renal function in Col4a3 knockout mice, all drugs were administered to 4-week-old Col4a3−/− mice for 4 weeks as follows: ezetimibe (Ez) was orally administered at a concentration of 5 mg/kg BW, ramipril was added to the drinking water at a concentration that would lead to a daily ramipril uptake of 10 mg/kg BW. All mice were sacrificed at 8 weeks of age. The following four groups of mice were analyzed: Col4a3^+/+, Col4a3^−/−+Ez, Col4a3^−/−+Ramp and Col4a3^−/−+Ez+Ramp.

[4] = Col4a3−/− mice treated 4 weeks, ezetimibe 5 mg/kg, ramipril 10 mg/kg

O=C1[C@H](CC[C@H](O)c2ccc(F)cc2)[C@@H](c2ccc(O)cc2)N1c1ccc(F)cc1 [ezetimibe]
total cholesterol content (kidney cortexes) (Col4a3−/− mice [1]; ezetimibe only treated Col4a3−/− mice): no effect on the total cholesterol content
triglyceride (TG) content in kidney cortexes (Col4a3−/− mice [1]): significantly decreased
triglyceride (TG) content in kidney cortexes (Col4a3−/− mice [1]; listed as ezetemibe): significantly decreased renal triglyceride content
solubility in ethanol, methanol, and acetone [2]: freely to very soluble
solubility in water [2]: practically insoluble
albumin/creatinine ratio (ACR) (Col4a3−/− mice [3]; 4-week-old Col4a3−/− mice treated 4 weeks, ezetimibe 5 mg/kg BW oral, ramipril 10 mg/kg BW in drinking water): significant reduction in the albumin/creatinine ratio; also recorded: significant decrease in the albumin/creatinine ratio
serum BUN levels (Col4a3−/− mice [3]; [4]): significant reduction in the serum BUN levels
serum creatinine levels (Col4a3−/− mice [3]; [4]): significant reduction in the serum creatinine levels
